Source: patent publication US20100029773A1 (priority 2004, published 2010)
pEC50: −log10 of the molar value.

Tests used:
[1] = biological target: association between PrPC and PrPSc (recombinant mouse PrP binding to PrP-Sc aggregates from human CJD brain) (Mus musculus, UniProt P04925); parameters: species or system mouse rPrP; human PrP-Sc; details: for classification in primary SIFT screening: primary hit = at least approx. 50% of the effect of 17 μM DOSPA on sum of bins in green sectors 1-5; for validation in SIFT dilution series (dose-dependent inhibition): six point dilution series 0.1-100 mM (so in the source)
Chain of association between PrPC and PrPSc (recombinant mouse PrP binding to PrP-Sc aggregates from human CJD brain) (P04925 23-231 limits assumed): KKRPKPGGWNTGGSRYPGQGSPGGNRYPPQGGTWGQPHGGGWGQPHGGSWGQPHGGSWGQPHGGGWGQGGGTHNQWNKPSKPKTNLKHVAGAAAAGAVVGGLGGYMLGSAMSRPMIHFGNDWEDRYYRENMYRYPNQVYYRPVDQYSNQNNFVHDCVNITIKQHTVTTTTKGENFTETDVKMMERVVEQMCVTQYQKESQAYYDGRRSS

[2] = tested on: PrPSc in scrapie-infected N2a (ScN2a) cells; assay: cells; type: cell-based, mouse; details: for pEC50: Mus musculus, ScN2a, read-out: EC50 of clearance of PrPSc from the cells; for activity against PrPSc propagation in cell culture: ScN2a cells, first screening at 15 mM (so in the source), 2 days
[3] = tested on: PrP-Sc deposits in spleen; parameters: species or system C57Bl6 mice; details: mouse, in vivo
α-synuclein = α-synuclein (Homo sapiens, UniProt P37840); assay: DMSO-induced α-synuclein aggregation in vitro (fluorescence cross-correlation and SIFT analysis); type: biochemical; details: 10 μM in 1% DMSO, 3-5 h
RML scrapie = details: for prolongation of the median of the survival time versus vehicle (75% DMSO) group: daily intraperitoneal, days 102-115 post intracerebral RML infection, 125-500 nmol
[4] = tested on: PrPSc in scrapie-infected N2a (ScN2a) cells; details: cell culture; cited from earlier work

O=C(NN=Cc1ccc(Cl)cc1Cl)c1ccc(O)c(O)c1 [305E04, 3,4-dihydroxy-N′-(2,4-dichlorobenzylidene)-benzohydrazide]
classification in primary SIFT screening [1]: primary SIFT hits | validation in SIFT dilution series (dose-dependent inhibition) [1]: validated in SIFT dilution series

O=C(NN=Cc1ccc2ccccc2c1)c1ccc(O)c(O)c1 [293G02, 3,4-dihydroxy-N′-(naphthalen-2-ylmethylene)-benzohydrazide]
classification in primary SIFT screening [1]: primary SIFT hits | validation in SIFT dilution series (dose-dependent inhibition) [1]: validated in SIFT dilution series | pEC50 [2]: ~5.70 | activity against PrPSc propagation in cell culture [2]: strongest cell culture activity | PrP-Sc deposits in spleen tissue [3]: no signs of PrP-Sc deposition could be detected | inhibition of formation of multimeric α-synuclein complexes (α-synuclein): inhibiting the formation of multimeric α-synuclein complexes to a large extent | prolongation of the median of the survival time versus vehicle (75% DMSO) group (RML scrapie): 9.5 days

O=C(NN=Cc1ccc2ccccc2c1)c1cccc(Cl)c1 [306H03, 3-chloro-N′-(naphthalen-2-ylmethylene)-benzohydrazide]
classification in primary SIFT screening [1]: primary SIFT hits | validation in SIFT dilution series (dose-dependent inhibition) [1]: validated in SIFT dilution series

O=C(NN=Cc1ccc2ccccc2c1)c1ccccc1O [297F03, 2-hydroxy-N′-(naphthalen-2-ylmethylene)-benzohydrazide]
classification in primary SIFT screening [1]: primary SIFT hits | validation in SIFT dilution series (dose-dependent inhibition) [1]: validated in SIFT dilution series

O=C(NN=Cc1ccc2ccccc2c1)c1ccc(O)cc1O [301C09, 2,4-dihydroxy-N′-(naphthalen-2-ylmethylene)-benzohydrazide]
classification in primary SIFT screening [1]: primary SIFT hits | validation in SIFT dilution series (dose-dependent inhibition) [1]: validated in SIFT dilution series

COc1ccc(C=NNC(=O)c2cccc(F)c2)cc1Br [309F02, 3-fluoro-N′-(3-bromo-4-methoxybenzylidene)-benzohydrazide]
classification in primary SIFT screening [1]: primary SIFT hits | validation in SIFT dilution series (dose-dependent inhibition) [1]: validated in SIFT dilution series | prolongation of the median of the survival time versus vehicle (75% DMSO) group (RML scrapie): 11.5 days

COc1cc(C=NN=C(N)N)ccc1OCc1c(C)c(C)c(Br)c(C)c1C [313B02, 1-(4-(4-bromo-2,3,5,6-tetramethylbenzyloxy)-3-methoxybenzylidene)-2-diaminomethylene-hydrazine]
classification in primary SIFT screening [1]: primary SIFT hits | validation in SIFT dilution series (dose-dependent inhibition) [1]: validated in SIFT dilution series | pEC50 [2]: ~5.22 | prolongation of the median of the survival time versus vehicle (75% DMSO) group (RML scrapie): no such prolongation | toxic signs during treatment (RML scrapie; intraperitoneal 50 μl per day of 5 mM, reduced to 2.5 mM after day 4): toxic signs

CCCCCCCC/C=C\CCCCCCCCOCC(C[N+](C)(C)CCNC(=O)C(CCCNCCCN)NCCCN)OCCCCCCCC/C=C\CCCCCCCC.Cl.Cl.Cl.Cl.[Cl-] (centres unmarked) [DOSPA, reference compound]
SIFT signal in sectors of aggregates predominantly labelled with green rPrP ([1]; 17 μM): reduced SIFT signal | activity against PrPSc propagation in cell culture [2]: PrPSc is cleared from the infected cells | inhibition of PrPSc formation in scrapie-infected mouse cells (previous finding) [4]: inhibit PrPSc formation
